Laboratory results taken from patent publication US20230372356A1, “CLOMIPRAMINE FOR THE TREATMENT OF ALZHEIMER'S DISEASE” (National Institute of Immunology, priority 2022, published 2023).

Assays:
[1] = system: Aβ42-treated cortical neurons; assay: Western blot of lysates of Aβ42-treated rat cortical neurons treated with clomipramine; type: cell-based; conditions: for cell cycle related neuronal apoptosis by immunoblotting (PCNA, cleaved caspase-3): 48 h (FIGS. 3D-3F)
Source text: The effect of clomipramine on cell cycle related neuronal apoptosis (CRNA) was investigated in Aβ42-treated cortical neurons (Aβ42 peptide induces neurodegeneration in AD patients). The TAp73 levels were restored upon clomipramine treatment (FIG. 1A). […] FIGS. 1B, 1C, and 1D show the quantification of TAp73, PCNA, and cleaved caspase-3 levels of the Western blot of FIG. 1A.
To determine an effective concentration of clomipramine, Aβ42 treated rat cortical neurons were subjected to different concentrations (10 nM to 100 nM) of clomipramine for 48 h. Lysates were prepared and immunoblotting was performed.
After 48 h, one set of cells were lysed, lysates were prepared and the lysates were subjected to immunoblotting.

[2] = system: APP/PS1 transgenic (TgAD) mouse model for AD; assay: Radial arm (8-arm) maze test in TgAD mice; type: in vivo
Description: Next, the effect of clomipramine was tested in an in vivo mouse model of AD. For this, Amyloid Precursor Protein (APP)/Presenillin 1 (PS1) transgenic (TgAD) mouse model for AD (strain name B6C3-Tg APPswe, PSEN1dE9 85Dboa; stock number 004462) was used. Wild type and transgenic (TgAD) mice were genotyped using genomic DNA isolated from mouse tail and PCR primers according to the Jackson laboratory protocol. Clomipramine hydrochloride, obtained from Sigma (C-7291), was dissolved in ultrapure MQ just before the injection and 100 μl of this solution was injected intraperitonially (I.P.injections) to each mouse of 23-25 g in weight (25 mg/kg body weight) for 45 days. […]
For radial arm (8-arm) maze test, mice were given restricted amount of food until their bodyweight reduced to 85% of the initial weight for two days prior to habituation in the maze. […] On the test day, all arms were opened and same five arms were baited as in trial sessions and their series of entries were recorded manually (Miyakawa, Yamada et al. 2001), from which the percentage of working and reference memory errors were calculated. The mouse entering an arm containing food where it had previously entered, was counted as working memory error (short term memory) and if the mouse entered in an arm without bait, was counted as reference memory error (long term memory for position of the baited arms). […]

TgAD cortex = assay: Western blot of cortex region of brain of clomipramine-treated TgAD mice; type: in vivo, mouse
Description: The animals used in the above-mentioned behavioral tests were euthanized and cortex region of brain was dissected out for biochemical analysis. The levels of Itch, TAp73, PCNA and cleaved caspase-3 were determined with Western blotting (FIG. 9A). FIGS. 9B-9F show the quantification of the levels of Itch, TAp73, PCNA and cleaved caspase-3 of the Western blot of FIG. 9A. After analysis of six animals from each group, it was observed that TAp73 protein levels, which were reduced in TgAD cortex, were much higher in clomipramine treated TgAD brains. […] Importantly, CRNA which is exacerbated in TgAD cortex was reversed in clomipramine-treated mice as indicated by decrease in PCNA and cleaved caspase 3 (FIG. 9A).

[3] = system: AD transgenic mouse model (Tg) cortical neurons; assay: Western blot of cortical neuron lysate from AD transgenic mouse model (Tg) treated with clomipramine; type: cell-based; conditions: Western blot (FIG. 2A)
Source text: The effect of clomipramine on cell cycle related neuronal apoptosis (CRNA) was also explored in AD transgenic mouse model (Tg) cortical neurons (in this mouse model, there is an increased production of Aβ42 which induces neurodegeneration similar to AD patients).

[4] = system: APP/PS1 transgenic (TgAD) mouse model for AD; assay: Morris water maze test in TgAD mice; type: in vivo; conditions: 25 mg/kg I.P. for 45 days
Description: (§1) Next, the effect of clomipramine was tested in an in vivo mouse model of AD. For this, Amyloid Precursor Protein (APP)/Presenillin 1 (PS1) transgenic (TgAD) mouse model for AD (strain name B6C3-Tg APPswe, PSEN1dE9 85Dboa; stock number 004462) was used. Wild type and transgenic (TgAD) mice were genotyped using genomic DNA isolated from mouse tail and PCR primers according to the Jackson laboratory protocol. Clomipramine hydrochloride, obtained from Sigma (C-7291), was dissolved in ultrapure MQ just before the injection and 100 μl of this solution was injected intraperitonially (I.P.injections) to each mouse of 23-25 g in weight (25 mg/kg body weight) for 45 days. Various behaviour tests (Morris water maze, Y-maze and Radial arm maze) were performed on clomipramine/saline injected mice.
For Morris water maze test, animals were subjected to three trials per session and one session a day, for five days. Each trial was for 60 s in which mice had to reach the hidden platform in the water, and the average time per session was recorded as escape latency. After the escape training, the platform was removed for the probe trial test. It tested the retention of spatial memory at 24 h after training (Vorhees and Williams 2006, Nunez 2008). The number of times a mouse crossed the probe, the time spent in the target quadrant, and swim speed were recorded using ANY-maze software (Stoelting Co., USA).
For in vivo studies, ˜6 months old WT/TgAD mice were intraperitonially injected with 25 mg/kg body weight of clomipramine for 45 days (FIG. 4A) and subjected to various behavior tests. […] After five days of training, probe trial was performed and observed that WT mice spent […] time searching for the platform in the area of previous location (target quadrant) than the TgAD reflected by FIG. 5B. […] These observations indicate improved spatial learning in TgAD mice upon clomipramine treatment.

[5] = Tolerability of chronic clomipramine treatment in WT/TgAD mice; type: in vivo, mouse
Description: as §1
Radial arm maze test was also performed to assess the long term as well as short term memory of mice (Penley, Gaudet et al. 2013, Fredriksson, Sreedharan et al. 2019). For this purpose, the 24 h food deprived mice were placed on the central platform of 8-arm maze and allowed to explore the maze for food (bait) placed at the end of each arm as depicted in FIG. 8A. Each training/testing session was 10 min long. […] TgAD mice group committed more reference and working memory errors than WT.

[6] = system: APP/PS1 transgenic (TgAD) mouse model for AD; assay: Y-maze test in TgAD mice; type: in vivo
Description: as §1
For Y-Maze test, animals were habituated in the Y-shaped maze for 3 min with one of the arms blocked then their spontaneous alternations were recorded with all arms open for 5 min (Miedel, Patton et al. 2017). The number of alternations was recorded manually and percent spontaneous alternations were calculated as mentioned below: […]
Y-maze test is an initial test of memory function. […] The memory function was tested when the animal was returned to the maze with all arms open and the tendency to spend time in the new or familiar arms was monitored.

[7] = system: Aβ42 treated cortical neurons; assay: BrdU incorporation / TUNEL labelling of Aβ42-treated cortical neurons; type: cell-based, rat
Description: Subsequently, BrdU incorporation and TUNEL labelling was performed to detect DNA replication and apoptosis, respectively. […] These findings indicate that clomipramine inhibits CRNA in AD neurons by preventing TAp73 degradation.
To another set of cells, BrdU was added after 48 h to label the neurons undergoing the replication (cell cycle re-entry). After that TUNEL assay was performed to label the cells undergoing apoptosis (FIG. 3G). The number of double positive cells were scored and plotted in the graph (FIG. 3H).

TAp73 = assay: Immunoprecipitation of TAp73 and ubiquitination blot in presence of proteasome inhibitor MG132; type: cell-based, rat; conditions: TAp73 immunoprecipitated in presence of MG132 (FIG. 2B)
[8] = TgAD mice, 25 mg/kg I.P. 45 days (FIG. 9A)
[9] = 4 groups of mice treated with clomipramine and saline, 25 mg/kg I.P. 45 days

CN(C)CCCN1c2ccccc2CCc2ccc(Cl)cc21 [clomipramine]
cell cycle related neuronal apoptosis by immunoblotting (PCNA, cleaved caspase-3) ([1]; 75 nM clomipramine): effective in reducing cell cycle related neuronalapoptosis
TAp73 levels ([1]; 75 nM clomipramine, 48 h, tested 10 nM to 100 nM (FIG. 3C)): restoration in TAp73 levels was observed
cell cycle related neuronal apoptosis by immunoblotting (PCNA, cleaved caspase-3) ([1]; 100 nM clomipramine): more apoptosis was observed
TAp73 levels ([1]; 100 nM clomipramine, 48 h, tested 10 nM to 100 nM (FIG. 3C)): restoration in TAp73 levels was observed
TAp73 levels ([1]; Aβ42-treated cortical neurons, Western blot (FIG. 1A, 1B)): restored
PCNA (cell cycle re-entry) ([1]; Aβ42-treated cortical neurons, Western blot (FIG. 1A, 1C)): significant decrease
cleaved caspase 3 (apoptosis) ([1]; Aβ42-treated cortical neurons, Western blot (FIG. 1A, 1D)): significant decrease
Radial arm maze reference memory errors (long term memory) ([2]; 25 mg/kg I.P. for 45 days (FIG. 8B)): significant improvement
Radial arm maze working memory errors (short term memory) ([2]; 25 mg/kg I.P. for 45 days (FIG. 8C)): significant improvement
TAp73 protein levels in cortex (TgAD cortex; TgAD brains, 25 mg/kg I.P. 45 days, six animals per group (FIGS. 9A, 9B)): much higher
PCNA in cortex (CRNA) (TgAD cortex; [8]): decrease
cleaved caspase 3 in cortex (CRNA) (TgAD cortex; [8]): decrease
PCNA (cell cycle re-entry) [3]: significant decrease
TAp73 levels [3]: restored
cleaved caspase 3 (apoptosis) [3]: significant decrease
Morris water maze: time to reach the hidden platform (escape latency) ([4]; five days of training (FIG. 4B)): marked improvement
Morris water maze: escape latency on the last day of training ([4]; last day (FIGS. 4B, 4C, 5A)): almost similar to the WT mice
Morris water maze probe trial: crossing of target quadrant area ([4]; platform removed (FIG. 5B)): more frequently, almost similar to WT mice
food intake [5, 9]: No significant differences
water intake [5, 9]: No significant differences
side effects of chronic treatment ([5]; mice, 25 mg/kg I.P. for 45 days): no major side effects
swimming speed ([5]; wild-type mice, clomipramine vs saline (FIG. 6A), p>0.05): almost unchanged
body weight ([5]; wild-type mice, clomipramine vs saline (FIG. 6B), p>0.05): almost unchanged
learning and memory abilities ([5]; wild-type mice, clomipramine vs saline, p>0.05): almost unchanged
Y-maze spontaneous alternation ([6]; TgAD mice, 25 mg/kg I.P. for 45 days, compared to TgAD): improvement of spontaneous alternation
Y-maze total number of arm entries ([6]; all groups, 25 mg/kg I.P. for 45 days (FIG. 7C)): no significant changes
BrdU/TUNEL double positive cells (CRNA) ([7]; 75 nM compared with 100 nM clomipramine, 48 h (FIGS. 3G, 3H)): more potent in preventing CRNA
BrdU+/TUNEL+ cells (CRNA) ([7]; Aβ42 treated cortical neurons (FIGS. 3A, 3B)): significant reduction
ubiquitination of TAp73 (TAp73): less ubiquitination of TAp73
